# ChEMBL document CHEMBL1201862, “PubChem BioAssay data set” (2004)
#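 Results reflect a 48-hour exposure of cells in 96-well plates to compound at five concentrations. At the GI50, growth is halved.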 The source made the active and inactive calls. Rule as the data show it: active = GI50 up to about 1.1 µM and inactive = higher.
# Columns and labels:
# Assay in all cases: NCI tumour cell line growth inhibition, 48 h
# 786-0 = system: 786-0
# A498 = system: A498
# A549 = system: A549
# ACHN = system: ACHN
# CAKI-1 = system: CAKI-1
# CCRF-CEM = system: CCRF-CEM
# COLO 205 = system: COLO 205
# DU-145 = system: DU-145
# EKVX = system: EKVX
# HCC 2998 = system: HCC 2998
# HCT-116 = system: HCT-116
# HCT-15 = system: HCT-15
# HL-60 = system: HL-60
# HOP-62 = system: HOP-62
# HOP-92 = system: HOP-92
# HT-29 = system: HT-29
# Hs-578T = system: Hs-578T
# IGROV-1 = system: IGROV-1
# K562 = system: K562
# KM12 = system: KM12
# LOX IMVI = system: LOX IMVI
# MCF7 = system: MCF7
# MDA-MB-231 = system: MDA-MB-231
# MDA-MB-435 = system: MDA-MB-435
# MDA-N = system: MDA-N
# MOLT-4 = system: MOLT-4
# Malme-3M = system: Malme-3M
# NCI-H226 = system: NCI-H226
# NCI-H23 = system: NCI-H23
# NCI-H460 = system: NCI-H460
# NCI-H522 = system: NCI-H522
# NCI/ADR-RES = system: NCI/ADR-RES
# OVCAR-3 = system: OVCAR-3
# OVCAR-4 = system: OVCAR-4
# OVCAR-5 = system: OVCAR-5
# OVCAR-8 = system: OVCAR-8
# PC-3 = system: PC-3
# RPMI-8226 = system: RPMI-8226
# RXF 393 = system: RXF 393
# SF-268 = system: SF-268
# SF-295 = system: SF-295
# SF-539 = system: SF-539
# SK-MEL-28 = system: SK-MEL-28
# SK-MEL-5 = system: SK-MEL-5
# SK-OV-3 = system: SK-OV-3
# SN12C = system: SN12C
# SNB-75 = system: SNB-75
# SR = system: SR
# SW-620 = system: SW-620
# T47D = system: T47D
# TK-10 = system: TK-10
# U-251 = system: U-251
# UACC-257 = system: UACC-257
# UACC-62 = system: UACC-62
# UO-31 = system: UO-31
# M14 = system: M14
# SNB-19 = system: SNB-19
# SK-MEL-2 = system: SK-MEL-2
smiles,measurement,setting,value
COC(=O)c1ccccc1/C=C1/Cc2ccccc2C1=O,GI50,786-0,> 10 µM (inactive)
same,GI50,A498,> 100 µM (inactive)
same,GI50,A549,50.7 µM (inactive)
same,GI50,ACHN,39.2 µM (inactive)
same,GI50,CAKI-1,25.8 µM (inactive)
same,GI50,CCRF-CEM,31.3 µM (inactive)
same,GI50,COLO 205,30 µM (inactive)
same,GI50,DU-145,> 100 µM (inactive)
same,GI50,EKVX,63.2 µM (inactive)
same,GI50,HCC 2998,> 100 µM (inactive)
same,GI50,HCT-116,24.4 µM (inactive)
same,GI50,HCT-15,23.4 µM
same,GI50,HL-60,30.1 µM (inactive)
same,GI50,HOP-62,98.4 µM (inactive)
same,GI50,HOP-92,61.1 µM (inactive)
same,GI50,HT-29,37.9 µM (inactive)
same,GI50,Hs-578T,30.9 µM (inactive)
same,GI50,IGROV-1,27.3 µM (inactive)
same,GI50,K562,32.7 µM (inactive)
same,GI50,KM12,25.2 µM (inactive)
same,GI50,LOX IMVI,17.8 µM (inactive)
same,GI50,MCF7,11.5 µM (inactive)
same,GI50,MDA-MB-231,44.7 µM (inactive)
same,GI50,MDA-MB-435,> 100 µM (inactive)
same,GI50,MDA-N,55.8 µM (inactive)
same,GI50,MOLT-4,24.4 µM (inactive)
same,GI50,Malme-3M,50.5 µM (inactive)
same,GI50,NCI-H226,63.8 µM (inactive)
same,GI50,NCI-H23,68.4 µM (inactive)
same,GI50,NCI-H460,> 100 µM (inactive)
same,GI50,NCI-H522,31.7 µM (inactive)
same,GI50,NCI/ADR-RES,36.5 µM (inactive)
same,GI50,OVCAR-3,23.8 µM (inactive)
same,GI50,OVCAR-4,34.4 µM (inactive)
same,GI50,OVCAR-5,33.3 µM (inactive)
same,GI50,OVCAR-8,47.1 µM (inactive)
same,GI50,PC-3,48.2 µM (inactive)
same,GI50,RPMI-8226,22 µM (inactive)
same,GI50,RXF 393,54.6 µM (inactive)
same,GI50,SF-268,> 100 µM (inactive)
same,GI50,SF-295,44.1 µM (inactive)
same,GI50,SF-539,> 100 µM (inactive)
same,GI50,SK-MEL-28,65.5 µM (inactive)
same,GI50,SK-MEL-5,18.6 µM (inactive)
same,GI50,SK-OV-3,> 100 µM (inactive)
same,GI50,SN12C,17.4 µM (inactive)
same,GI50,SNB-75,> 100 µM (inactive)
same,GI50,SR,22.2 µM (inactive)
same,GI50,SW-620,28.3 µM (inactive)
same,GI50,T47D,19.6 µM (inactive)
same,GI50,TK-10,> 100 µM (inactive)
same,GI50,U-251,29.7 µM (inactive)
same,GI50,UACC-257,24 µM (inactive)
same,GI50,UACC-62,36.1 µM (inactive)
same,GI50,UO-31,50.6 µM (inactive)
Cc1cc(NS(=O)(=O)c2ccc(NC(NC(=O)OC(C)C)(C(F)(F)F)C(F)(F)F)cc2)nc(C)n1,GI50,786-0,> 100 µM (inactive)
same,GI50,A498,> 100 µM (inactive)
same,GI50,A549,> 100 µM (inactive)
same,GI50,ACHN,> 100 µM (inactive)
same,GI50,CAKI-1,> 100 µM (inactive)
same,GI50,CCRF-CEM,> 100 µM (inactive)
same,GI50,COLO 205,> 100 µM (inactive)
same,GI50,DU-145,> 100 µM (inactive)
same,GI50,EKVX,> 100 µM (inactive)
same,GI50,HCC 2998,> 100 µM (inactive)
same,GI50,HCT-116,> 100 µM (inactive)
same,GI50,HCT-15,> 100 µM
same,GI50,HL-60,> 100 µM (inactive)
same,GI50,HOP-62,> 100 µM (inactive)
same,GI50,HOP-92,> 100 µM (inactive)
same,GI50,HT-29,> 100 µM (inactive)
same,GI50,Hs-578T,> 100 µM (inactive)
same,GI50,IGROV-1,> 100 µM (inactive)
same,GI50,K562,> 100 µM (inactive)
same,GI50,KM12,> 100 µM (inactive)
same,GI50,LOX IMVI,> 100 µM (inactive)
same,GI50,M14,> 100 µM (inactive)
same,GI50,MCF7,> 100 µM (inactive)
same,GI50,MDA-MB-231,> 100 µM (inactive)
same,GI50,MDA-MB-435,> 100 µM (inactive)
same,GI50,MDA-N,> 100 µM (inactive)
same,GI50,MOLT-4,> 100 µM (inactive)
same,GI50,Malme-3M,> 100 µM (inactive)
same,GI50,NCI-H226,> 100 µM (inactive)
same,GI50,NCI-H23,> 100 µM (inactive)
same,GI50,NCI-H460,> 100 µM (inactive)
same,GI50,NCI/ADR-RES,> 100 µM (inactive)
same,GI50,OVCAR-3,> 100 µM (inactive)
same,GI50,OVCAR-4,> 100 µM (inactive)
same,GI50,OVCAR-5,> 100 µM (inactive)
same,GI50,OVCAR-8,> 100 µM (inactive)
same,GI50,PC-3,> 100 µM (inactive)
same,GI50,RPMI-8226,> 100 µM (inactive)
same,GI50,RXF 393,> 100 µM (inactive)
same,GI50,SF-268,> 100 µM (inactive)
same,GI50,SF-295,> 100 µM (inactive)
same,GI50,SF-539,> 100 µM (inactive)
same,GI50,SK-MEL-28,> 100 µM (inactive)
same,GI50,SK-MEL-5,> 100 µM (inactive)
same,GI50,SK-OV-3,> 100 µM (inactive)
same,GI50,SN12C,> 100 µM (inactive)
same,GI50,SNB-19,> 100 µM (inactive)
same,GI50,SNB-75,> 100 µM (inactive)
same,GI50,SR,> 100 µM (inactive)
same,GI50,SW-620,> 100 µM (inactive)
same,GI50,T47D,60.7 µM (inactive)
same,GI50,TK-10,> 100 µM (inactive)
same,GI50,U-251,> 100 µM (inactive)
same,GI50,UACC-257,> 100 µM (inactive)
same,GI50,UACC-62,> 100 µM (inactive)
CN(C)N1C(=C(C#N)C#N)C(c2ccccc2)CC1C#N (stereo not given),GI50,786-0,> 100 µM (inactive)
same,GI50,A498,> 100 µM (inactive)
same,GI50,A549,> 100 µM (inactive)
same,GI50,ACHN,> 100 µM (inactive)
same,GI50,CAKI-1,> 100 µM (inactive)
same,GI50,CCRF-CEM,> 100 µM (inactive)
same,GI50,COLO 205,> 100 µM (inactive)
same,GI50,DU-145,> 100 µM (inactive)
same,GI50,EKVX,> 100 µM (inactive)
same,GI50,HCC 2998,> 100 µM (inactive)
same,GI50,HCT-116,> 100 µM (inactive)
same,GI50,HCT-15,> 100 µM
same,GI50,HL-60,> 100 µM (inactive)
same,GI50,HOP-62,> 100 µM (inactive)
same,GI50,HOP-92,> 100 µM (inactive)
same,GI50,HT-29,> 100 µM (inactive)
same,GI50,Hs-578T,> 100 µM (inactive)
same,GI50,IGROV-1,> 100 µM (inactive)
same,GI50,K562,> 100 µM (inactive)
same,GI50,KM12,> 100 µM (inactive)
same,GI50,LOX IMVI,> 100 µM (inactive)
same,GI50,M14,> 100 µM (inactive)
same,GI50,MCF7,> 100 µM (inactive)
same,GI50,MDA-MB-231,> 100 µM (inactive)
same,GI50,MDA-MB-435,> 100 µM (inactive)
same,GI50,MDA-N,> 100 µM (inactive)
same,GI50,MOLT-4,> 100 µM (inactive)
same,GI50,Malme-3M,> 100 µM (inactive)
same,GI50,NCI-H226,> 100 µM (inactive)
same,GI50,NCI-H23,> 100 µM (inactive)
same,GI50,NCI-H522,> 100 µM (inactive)
same,GI50,NCI/ADR-RES,> 100 µM (inactive)
same,GI50,OVCAR-5,> 100 µM (inactive)
same,GI50,OVCAR-8,> 100 µM (inactive)
same,GI50,PC-3,> 100 µM (inactive)
same,GI50,RPMI-8226,> 100 µM (inactive)
same,GI50,RXF 393,> 100 µM (inactive)
same,GI50,SF-268,> 100 µM (inactive)
same,GI50,SF-295,> 100 µM (inactive)
same,GI50,SF-539,> 100 µM (inactive)
same,GI50,SK-MEL-28,> 100 µM (inactive)
same,GI50,SK-MEL-2,> 100 µM (inactive)
same,GI50,SK-MEL-5,> 100 µM (inactive)
same,GI50,SK-OV-3,> 100 µM (inactive)
same,GI50,SN12C,> 100 µM (inactive)
same,GI50,SNB-19,> 100 µM (inactive)
same,GI50,SNB-75,57.8 µM (inactive)
same,GI50,SR,> 10 µM (inactive)
same,GI50,SW-620,> 100 µM (inactive)
same,GI50,T47D,> 100 µM (inactive)
same,GI50,TK-10,> 100 µM (inactive)
same,GI50,U-251,> 100 µM (inactive)
same,GI50,UACC-257,> 100 µM (inactive)
same,GI50,UACC-62,> 100 µM (inactive)
same,GI50,UO-31,> 100 µM (inactive)
